The test system of data set [1] is human tooth germ stem cells.
Method: The intermediate concentrations to be applied on the cells were prepared in the cell culture medium and were applied on the human tooth germ stem cells.
In data set [2] the test system is human tooth germ stem cells. Conditions: FIG. 2.
Method: During the freezing process, different from the standard protocol, 20 μg/ml NaB was added to the cell cryopreservation medium. The control group was incubated by a standard cryopreservation medium. During freezing of the cells, different amounts of Me2SO (10%, 7%, 5% and 3% Me2SO) were added to the medium which contained 20% FBS (Fetal Bovine Serum) and 1% PSA (penicillin streptomycin amphotericin) in addition to 20 μg/ml NaB. Except for the group which was frozen for an extended period (6 months), the other cells were subjected to 4 repeating freeze-thaw processes. During each freezing process, one million cells were placed into one freezing tube and were frozen to −80° C. by using a freezing tank. The freezing tubes were transferred to −196° C. liquid nitrogen vapor one day later. After each freezing process, the cells were rapidly molten in a 37° C. water bath and viability analyses were performed with trypan blue.
Data set [3] relates to human tooth germ stem cells. The note with it: 20 μg/ml NaB + 5% Me2SO, thawed after long term freezing.

For the substance sodium pentaborate pentahydrate [NaB], in data set [1], the “concentration at which toxic effect was observed” value was at least 200 µg/mL. The “toxic effect in cell viability analysis of frozen cells” value in data set [2] (20 μg/ml NaB in the presence of 5% Me2SO, repeatedly frozen cells and cells stored long term (6 months)) was “decreased toxic effect”. In addition, the “cell viability over repeated freeze-thaw processes” value in data set [2] (20 μg/ml NaB, 5% Me2SO in cryopreservation medium) was “started to increase during and after the second freeze-thaw process”. Also, in data set [3], the “differentiation of the cells into chondrogenic lineage” value was “increase”, the “differentiation of the cells into odontogenic lineage” value is reported as “increase” and the “stem cell differentiation into adipose tissue” value is given as “slight decrease”. Further, the “differentiation potentials of the cells (staining and immunocytochemistry analyses)” value in data set [3] (FIG. 3-4) was “no significant change”.

The record behind these values is patent US9943076B2, “Boron added cell cryopreservation medium” (YEDITEPE ÜNIVERSITESI, priority 2013, dated 2018).
